Assay results from ChEMBL document CHEMBL1201862, “PubChem BioAssay data set” (2004).
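Cultured in 96-well plates, cells were exposed to test compound for 48 hours across five concentrations. At the GI50, growth is halved.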 Activity calls are given as the source filed them. Cut-off read from the data, not from the text of the source: active = GI50 up to about 1.1 µM and inactive = higher. Non-standard residues stand in square brackets, D forms with d. Residues, ends and D or L forms follow the SMILES beside them. *: point of attachment. Ac5c = NC1(C(=O)O)CCCC1; Cbz = O=C(OCc1ccccc1)*; Boc = CC(C)(C)OC(=O)*; tBu = CC(C)(C)*

Legend:
Assay in all cases: NCI-60 cell line screen, 48 h
SK-MEL-28 = tested on: SK-MEL-28
NCI-H460 = tested on: NCI-H460
SK-OV-3 = tested on: SK-OV-3
DU-145 = tested on: DU-145
SN12C = tested on: SN12C
NCI-H522 = tested on: NCI-H522
MDA-N = tested on: MDA-N
786-0 = tested on: 786-0
A498 = tested on: A498
SF-539 = tested on: SF-539
NCI-H23 = tested on: NCI-H23
CAKI-1 = tested on: CAKI-1
HOP-92 = tested on: HOP-92
MOLT-4 = tested on: MOLT-4
MCF7 = tested on: MCF7
Malme-3M = tested on: Malme-3M
HCT-116 = tested on: HCT-116
UACC-257 = tested on: UACC-257
OVCAR-8 = tested on: OVCAR-8
UO-31 = tested on: UO-31

Compound	GI50 (SK-MEL-28)	GI50 (NCI-H460)	GI50 (SK-OV-3)	GI50 (DU-145)	GI50 (SN12C)	GI50 (NCI-H522)	GI50 (MDA-N)	GI50 (786-0)	GI50 (A498)	GI50 (SF-539)	GI50 (NCI-H23)	GI50 (CAKI-1)	GI50 (HOP-92)	GI50 (MOLT-4)	GI50 (MCF7)	GI50 (Malme-3M)	GI50 (HCT-116)	GI50 (UACC-257)	GI50 (OVCAR-8)	GI50 (UO-31)
O=C1c2cccnc2-c2nccc3c2c1nc1ccccc13 [ASCIDIDEMIN]	0.321 µM (active)	0.0879 µM (active)	0.272 µM (active)	0.0621 µM (active)	0.186 µM (active)	0.0975 µM (active)	0.157 µM (active)	0.752 µM (active)	0.27 µM (active)	0.189 µM (active)	0.172 µM (active)	0.215 µM (active)	0.49 µM (active)	0.692 µM (active)	0.0708 µM (active)	0.231 µM (active)	0.0352 µM (active)	0.321 µM (active)	0.0505 µM (active)	0.143 µM (active)
Cc1cc(C)n(C(=O)C(C)Sc2nnc(SC(C)C(=O)n3nc(C)cc3C)s2)n1 (stereo not given)	> 100 µM (inactive)	> 100 µM (inactive)	> 100 µM (inactive)	> 100 µM (inactive)			> 100 µM (inactive)	> 100 µM (inactive)	> 100 µM (inactive)		> 100 µM (inactive)	> 100 µM (inactive)	> 100 µM (inactive)	> 100 µM (inactive)	> 100 µM (inactive)	> 100 µM (inactive)	> 100 µM (inactive)	> 100 µM (inactive)	> 100 µM (inactive)	> 100 µM (inactive)
CC(=O)c1ccc(NCN2C(=O)c3ccccc3C2=O)cc1	> 100 µM (inactive)	> 100 µM (inactive)	> 100 µM (inactive)	> 100 µM (inactive)	> 100 µM (inactive)	97.5 µM (inactive)	> 100 µM (inactive)	> 100 µM (inactive)	> 100 µM (inactive)	> 100 µM (inactive)	> 100 µM (inactive)	> 100 µM (inactive)	> 100 µM (inactive)	> 100 µM (inactive)	> 100 µM (inactive)	> 100 µM (inactive)	> 100 µM (inactive)	> 100 µM (inactive)	> 100 µM (inactive)	> 100 µM (inactive)
CCc1nc2cc3cccnc3c(Cl)c2[nH]c1=O	> 100 µM (inactive)	> 100 µM (inactive)	95.9 µM (inactive)	> 100 µM (inactive)	> 100 µM (inactive)	> 100 µM (inactive)	> 100 µM (inactive)	79.8 µM (inactive)	> 100 µM (inactive)		> 100 µM (inactive)	75.7 µM (inactive)	49.2 µM (inactive)	> 100 µM (inactive)	5.86 µM (inactive)	> 100 µM (inactive)	> 100 µM (inactive)	> 100 µM (inactive)	> 100 µM (inactive)	> 100 µM (inactive)
C=C1C(=O)O[C@@]23C1CC[C@@H](C)C2CC[C@@]1(C)OC31 (stereo not given in full)	6.35 µM (inactive)	16.4 µM (inactive)	16 µM (inactive)	3.85 µM (inactive)	7.24 µM (inactive)	6.32 µM (inactive)	5.09 µM (inactive)	5.71 µM (inactive)	18.2 µM (inactive)	3.24 µM (inactive)	7.18 µM (inactive)	5.75 µM (inactive)	8.79 µM (inactive)	3.61 µM (inactive)	5.96 µM (inactive)	2.08 µM (inactive)	8.65 µM (inactive)	6.75 µM (inactive)	16.9 µM (inactive)	5.69 µM (inactive)
COc1ccc(Nc2nc(N)c(C(=O)c3cccs3)s2)cc1	31 µM (inactive)	3.1 µM (inactive)	20.6 µM (inactive)	5.56 µM (inactive)	27.5 µM (inactive)	5.09 µM (inactive)	3.92 µM (inactive)	8.49 µM (inactive)	6.68 µM (inactive)	4.21 µM (inactive)	12.8 µM (inactive)	5 µM (inactive)	21.1 µM (inactive)	2.51 µM (inactive)	5.21 µM (inactive)	30.1 µM (inactive)	3.22 µM (inactive)	9.31 µM (inactive)	19.2 µM (inactive)	6.1 µM (inactive)
Nc1ccccc1NC(=O)c1ccc(CNC(=O)OCc2cccnc2)cc1 [ENTINOSTAT]	1.97 µM (inactive)	0.558 µM (active)	4.9 µM (inactive)	0.805 µM (active)	4.75 µM (inactive)	0.908 µM (active)	0.778 µM (active)	3.35 µM (inactive)	0.429 µM (active)	3.76 µM (inactive)	1.38 µM (inactive)		0.989 µM (active)	0.557 µM (active)	0.845 µM (active)		0.415 µM (active)	1.59 µM (inactive)	0.993 µM (active)	0.759 µM (active)
COc1cc2ccccc2c2cc([N+](=O)[O-])oc12	0.261 µM (active)	0.183 µM (active)	0.49 µM (active)	0.265 µM (active)	0.927 µM (active)	0.183 µM (active)	0.216 µM (active)	0.374 µM (active)	0.177 µM (active)	0.91 µM (active)	1.2 µM (inactive)	0.48 µM (active)	0.78 µM (active)	0.0792 µM (active)	0.35 µM (active)	0.126 µM (active)	0.249 µM (active)	0.179 µM (active)	1.9 µM (inactive)	0.618 µM (active)
CC1CC(C)(O)CC(C(O)CC2CC(=O)NC(=O)C2)C1=O (stereo not given) [RESACTIN A]	0.0478 µM (active)	0.0385 µM (active)	0.0818 µM (active)	0.0461 µM (active)	0.0202 µM (active)	< 0.0135 µM (active)	0.0372 µM (active)	0.0252 µM (active)	0.067 µM (active)	0.0197 µM (active)	0.0413 µM (active)	< 0.01 µM (active)	< 0.02 µM (active)	0.0151 µM (active)	0.0379 µM (active)	0.0546 µM (active)	0.0308 µM (active)	0.0541 µM (active)	0.0266 µM (active)	0.055 µM (active)
O=c1[nH]c(=S)[nH]n1C(=S)n1[nH]c(=S)[nH]c1=O	> 100 µM (inactive)	> 100 µM (inactive)		> 100 µM (inactive)	> 100 µM (inactive)	> 100 µM (inactive)	> 100 µM (inactive)	> 100 µM (inactive)	> 100 µM (inactive)	> 100 µM (inactive)	> 100 µM (inactive)	> 100 µM (inactive)	> 100 µM (inactive)	> 100 µM (inactive)	2.94 µM (inactive)	36.7 µM (inactive)	> 100 µM (inactive)	> 100 µM (inactive)	> 100 µM (inactive)	> 100 µM (inactive)
COc1cc([N+](=O)[O-])ccc1NC1=CC(=O)CCC1	59.4 µM (inactive)	> 100 µM (inactive)	> 100 µM (inactive)	> 100 µM (inactive)	> 100 µM (inactive)		> 100 µM (inactive)	> 100 µM (inactive)	> 100 µM (inactive)	> 100 µM (inactive)	> 100 µM (inactive)	49.5 µM (inactive)	> 100 µM (inactive)	> 100 µM (inactive)	> 100 µM (inactive)	> 100 µM (inactive)	> 100 µM (inactive)	> 100 µM (inactive)	> 100 µM (inactive)	> 100 µM (inactive)
Oc1cc(Cl)cc2cccnc12	19.3 µM (inactive)	1.44 µM (inactive)	43.7 µM (inactive)	9.71 µM (inactive)	1.7 µM (inactive)	0.348 µM (active)	17.9 µM (inactive)	8.71 µM (inactive)	11.5 µM (inactive)		1.29 µM (inactive)	5 µM (inactive)	3.25 µM (inactive)	0.465 µM (active)	1.04 µM (active)	3.02 µM (inactive)	1.43 µM (inactive)	1.38 µM (inactive)	0.528 µM (active)	0.847 µM (active)
CCOC(=O)/C=C/c1nc(C#N)c(N)o1	> 100 µM (inactive)		> 100 µM (inactive)	> 100 µM (inactive)	> 100 µM (inactive)		> 100 µM (inactive)	> 100 µM (inactive)	> 100 µM (inactive)			> 100 µM (inactive)	> 100 µM (inactive)	> 100 µM (inactive)	> 100 µM (inactive)		> 100 µM (inactive)	> 100 µM (inactive)	> 100 µM (inactive)	53.6 µM (inactive)
Cc1ccc(S(=O)(=O)N2CCCN(S(=O)(=O)c3ccc(C)cc3)CC2)cc1	> 100 µM (inactive)	> 100 µM (inactive)		> 100 µM (inactive)	> 100 µM (inactive)	> 100 µM (inactive)	> 100 µM (inactive)		2.75 µM (inactive)		> 100 µM (inactive)		> 100 µM (inactive)	> 100 µM (inactive)	> 100 µM (inactive)		> 100 µM (inactive)	> 100 µM (inactive)	> 100 µM (inactive)	> 100 µM (inactive)
COC(=O)C1(NC(=O)C(Cc2ccccc2)NC(=O)C(NC(=O)C(CCCCNC(=O)OC(C)(C)C)NC(=O)C(Cc2c[nH]c3ccccc23)NC(=O)C(Cc2ccccc2)NC(=O)OCc2ccccc2)C(C)OC(C)(C)C)CCCC1 (stereo not given) (Cbz-FWK(Boc)T(tBu)F[Ac5c]-OMe; configuration not given here)	> 100 µM (inactive)	> 100 µM (inactive)	93.3 µM (inactive)	> 100 µM (inactive)	> 100 µM (inactive)	19 µM (inactive)	> 100 µM (inactive)	> 100 µM (inactive)	> 10 µM (inactive)	> 10 µM (inactive)	> 100 µM (inactive)	> 100 µM (inactive)	68.9 µM (inactive)		> 100 µM (inactive)	> 100 µM (inactive)	> 100 µM (inactive)	> 100 µM (inactive)	> 100 µM (inactive)	> 100 µM (inactive)
